Data taken from patent US11021481B2, “Substituted isoindolin-1-ones and 2,3-dihydro-1h-pyrrolo[3,4-c]pyridin-1-ones as HPK1 antagonists” (Nimbus Saturn, Inc., priority 2019, dated 2021).

Target: HPK1 (Homo sapiens (Human), UniProt Q92918)
Assay: HPK1 biochemical enzyme assay (microfluidic mobility shift assay)
Conditions: 1.5 nM HPK1, ATP 1 mM final, 30 min preincubation, 60 min at RT, Caliper EZ Reader; read-out: HPK1 1000UMATP caliper IC50
Procedure, shortened: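 Mobility shift readout of HPK1 activity after a 60 min RT reaction with 1 mM ATP, 1 μM substrate and 5 mM MgCl2. Enzyme/substrate mix was first exposed to compounds for 30 min, using ten-point curves topping at 3 μM final.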

Chain of HPK1 (Q92918 whole entry): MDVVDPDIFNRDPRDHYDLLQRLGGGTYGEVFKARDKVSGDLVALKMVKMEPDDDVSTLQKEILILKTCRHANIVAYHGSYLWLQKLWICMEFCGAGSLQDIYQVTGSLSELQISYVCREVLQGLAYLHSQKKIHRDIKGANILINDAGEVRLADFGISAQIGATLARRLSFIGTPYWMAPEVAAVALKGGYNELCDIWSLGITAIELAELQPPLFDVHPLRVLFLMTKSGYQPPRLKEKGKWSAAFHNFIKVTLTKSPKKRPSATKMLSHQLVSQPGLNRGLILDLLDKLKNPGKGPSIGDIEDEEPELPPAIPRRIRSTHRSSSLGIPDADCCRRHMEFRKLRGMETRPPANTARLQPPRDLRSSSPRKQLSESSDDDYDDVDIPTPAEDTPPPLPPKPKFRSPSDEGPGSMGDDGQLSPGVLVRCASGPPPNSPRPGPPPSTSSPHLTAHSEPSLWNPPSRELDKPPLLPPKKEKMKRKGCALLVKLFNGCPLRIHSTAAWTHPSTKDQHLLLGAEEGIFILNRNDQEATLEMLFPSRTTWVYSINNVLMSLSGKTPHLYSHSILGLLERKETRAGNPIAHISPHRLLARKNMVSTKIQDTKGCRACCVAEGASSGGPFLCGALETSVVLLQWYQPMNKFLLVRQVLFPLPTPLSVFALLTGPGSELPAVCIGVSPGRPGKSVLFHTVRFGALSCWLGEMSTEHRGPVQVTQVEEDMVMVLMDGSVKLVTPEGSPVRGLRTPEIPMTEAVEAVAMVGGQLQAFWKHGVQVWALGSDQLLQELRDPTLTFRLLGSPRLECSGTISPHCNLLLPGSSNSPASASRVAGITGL

Row | SMILES | IC50 [nM]
1 | Cn1ccc2c(-c3ncc(Nc4ccc5c(n4)CNCC5)c4c3CNC4=O)ccnc21 [I-413] | > 1000
2 | Cn1ccc2c(-c3ncc(Nc4cccc(C5CNC5)n4)c4c3CNC4=O)ccnc21 [I-415, 7-((6-(azetidin-3-yl)pyridin-2-yl)amino)-4-(1-methyl-1H-pyrrolo[2.3-b]pyridin-4-yl)-2,3-dihydro-1H-pyrrolo[3,4-c]pyridin-1-one] | < 100
3 | CN1CCc2ccc(Nc3cnc(-c4ccnc5c4ccn5C)c4c3C(=O)NC4)nc2C1 [I-418, 4-(1-methyl-1H-pyrrolo[2,3-b]pyridin-4-yl)-7-((7-methyl-5,6,7,8-tetrahydro-1,7-naphthyridin-2-yl)amino)-2,3-dihydro-1H-pyrrolo[3,4-c]pyridin-1-one] | > 1000
4 | CN1CCC[C@H](c2cccc(Nc3cnc(-c4ccnc5c4ccn5C)c4c3C(=O)NC4)n2)C1 [I-419, (S)-4-(1-methyl-1H-pyrrolo[2,3-b]pyridin-4-yl)-7-((6-(1-methylpiperidin-3-yl)pyridin-2-yl)amino)-2.3-dihydro-1H-pyrrolo[3,4-c]pyridin-1-one] | > 1000
5 | CN1CCC[C@@H](c2cccc(Nc3cnc(-c4ccnc5c4ccn5C)c4c3C(=O)NC4)n2)C1 [I-420, (R]-4-(1-methyl-1H-pyrrolo[2,3-b]pyridin-4-yl)-7-((6-(1-methylpiperidin-3-yl)pyridin-2-yl)amino)-2.3-dihydro-1H-pyrrolo[3,4-c]pyridin-1-one] | < 100
6 | Cn1ccc2c(-c3ncc(Nc4ccc(C5(O)CCOCC5)cn4)c4c3CNC4=O)ccnc21 [I-427] | < 100
7 | Cn1ccc2c(-c3ncc(Nc4cccc(C5(C)CCNCC5)n4)c4c3CNC4=O)ccnc21 [I-430, 4-(1-methyl-1H-pyrrolo[2,3-b]pyridin-4-yl)-7-((6-(4-methylpiperidin-4-yl)pyridin-2-yl)amino)-2,3-dihydro-1H-pyrrolo[3,4-c]pyridin-1-one] | > 1000
8 | Cn1ccc2c(-c3ncc(Nc4cccc(N5CC[C@@H](N6CCCC6)C5)n4)c4c3CNC4=O)ccnc21 [I-431, (R)-7-((6-([1,3-bipyrrolidin]-1-yl)pyridin-2-yl)amino)-1-(1-methyl-1H-pyrrolo[2,3-b]pyridin-4-yl)-2,3-dihydro-1H-pyrrolo[3,4-c]pyridin-1-one] | < 100
9 | CN1CC(c2cccc(Nc3cnc(-c4ccnc5c4ccn5C)c4c3C(=O)NC4)n2)C1 [I-432, 4-(1-methyl-1H-pyrrolo[2,3-b]pyridin-4-yl)-7-((6-(1-methylazetidin-3-yl)pyridin-2-yl)amino)-2,3-dihydro-1H-pyrrolo[3,4-c]pyridin-1-one] | > 1000
10 | Cc1ccn2c(-c3ccc(Nc4ccc(N5CCC(O)(CN6CCOCC6)CC5)cn4)c4c3CNC4=O)cnc2c1F [I-439, 4-(8-fluoro-7-methylimidazo [1,2-a]pyridin-3-yl)-7-((5-(4-hydroxy-4-(morpholinomethyl)piperidin-1-yl)pyridin-2-yl)amino)isoin-dolin-1-one] | < 100
11 | Cn1ccc2c(-c3ncc(Nc4cccc(N5CC[C@H]6CNC[C@H]65)n4)c4c3CNC4=O)ccnc21 [I-440, 7-((6-((3aS,6aS)-hexahydropy-rrolo[3,4-b]pyrrol-(2H)-yl)pyridin-2-yl)amino)-4-(1-methyl-1H-pyrrolo[2,3-b]pyridin-4-yl)-2,3-dihydro-1H-pyrrolo[3,4-c]pyridin-1-one] | < 100
12 | Cn1ccc2c(-c3ncc(Nc4cccc(N5CC[C@@H]6CNC[C@@H]65)n4)c4c3CNC4=O)ccnc21 [I-441, 7-((6-((3aR,6aR)-hexahydro-pyrrolo[3,4-b]pyrrol-1(2H)-yl)pyridin-2-yl)amino)-4-(1-methyl-1H-pyrrolo[2,3-b)pyridin-4-yl)-2,3-dihydro-1H-pyrrolo[3,4-c]pyridin-1-one] | 100 to 1000
13 | Cn1ccc2c(-c3ncc(Nc4cccc(N5CC[C@H](N6CCCC6)C5)n4)c4c3CNC4=O)ccnc21 [I-443, (S)-7-((6-([1,3-bipynolidin]-1′-yl)pyridin-2-yl)amino)-4-(1-methyl-1H-pyrrolo[2,3-b]pyridin-4-yl)-2,3-dihydro-1H-pyrrolo[3,4-c]pyridin-1-one] | < 100

Results, then the compound that gave them:

Row | IC50 [nM] | SMILES
14 | < 100 | CN1CCN(CC2(O)CCN(c3ccc(Nc4ccc(-c5cnc6cnccn56)c5c4C(=O)NC5)nc3)CC2)CC1 [I-412, 7-((5-(4-hydroxy-4-((4-methylpiperazin-1-yl)methyl)piper-idin-1-yl)pyridin-2-yl)amino)-4-(imidazo[1,2-a]pyrazin-3-yl)isoindolin-1-one]
15 | < 100 | COC[C@H]1CN(c2ccc(Nc3cnc(-c4ccnc5c4ccn5C)c4c3C(=O)NC4)nc2)CC[C@@H]1O [I-414]
16 | < 100 | Cn1ccc2c(-c3ncc(Nc4ccc(N5CC[C@@H](F)[C@H](O)C5)cn4)c4c3CNC4=O)ccnc21 [I-416, 7-((5-((3R,4R)-4-fluoro-3-hydroxy-piperidin-1-yl)pyridin-2-yl)amino)-4-(1-methyl-1H-pyrrolo[2,3-b]pyridin-4-yl)-2,3-dihydro-1H-pyrrolo[3,4-c]pyridin-1-one]
17 | < 100 | Cn1ccc2c(-c3ncc(Nc4ccc(N5CC[C@H](F)[C@@H](O)C5)cn4)c4c3CNC4=O)ccnc21 [I-417, 7-((5-((3S,4S)-4-fluoro-3-hydroxy-piperidin-1-yl)pyridin-2-yl)amino)-4-(1-methyl-1H-pyrrolo[2,3-b]pyridin-4-yl)-2,3-dihydro-1H-pyrrolo[3,4-c]pyridin-1-one]
18 | < 100 | COC[C@H]1CN(c2ccc(Nc3ccc(-c4cnc5cc(F)ccn45)c4c3C(=O)NC4)nc2)CCO1 [I-421, (R)-4-(7-fluoroimidazo [1,2-a]pyridin-3-yl)-7-((5-(2-(methoxymeth-yl)morpholino)pyridin-2-yl)amino)isoin-dolin-1-one]
19 | 100 to 1000 | Cn1cc2c(-c3ccc(Nc4ccc(N5CCC(O)CC5)cn4)c4c3CNC4=O)cnc-2cn1 [I-422, 7-((5-(4-hydroxy-piperidin-1-yl)pyridin-2-yl)amino)-4-(5-methyl-5H-pyrrolo[2,3-d]pyridazin-3-yl)isoindolin-1-one]
20 | < 100 | COC[C@H]1CN(c2ccc(Nc3cnc(-c4ccnc5c4ccn5C)c4c3C(=O)NC4)nc2)CC[C@H]1O [I-423, 7-((5-((3R,4R)-4-hydroxy-3-(methoxymeth-yl)piperidin-1-yl)pyridin-2-yl)amino)-4-(1-methyl-l H-4-pyrrolo[2,3-b]pyridin-4-yl)-2,3-dihydro-1H-pyrrolo[3,4-c]pyridin-1-one]
21 | < 100 | Cn1ccc2c(-c3ccc(Nc4ncc(N5CCC(O)CC5)cc4F)c4c3CNC4=O)ccnc21 [I-424, 7-((3-fluoro-5-(4-hydroxy-piperidin-1-yl)pyridin-2-yl)amino)-4-(1-methyl-1H-pyrrolo[2,3-b]pyridin-4-yl)isoindolin-1-one]
22 | < 100 | Cn1cc(-c2ccc(Nc3ccc(N4CCC(O)CC4)cn3)c3c2CNC3=O)c2cnncc21 [I-425, 7-((5-(4-hydroxy-piperidin-1-yl)pyridin-2-yl)amino)-4-(1-methyl-1H-pyrrolo[2,3-d]pyridazin-3-yl)isoindolin-1-one]
23 | < 100 | Cn1ccc2c(-c3ccc(Nc4ccc(N5CCC(O)CC5)cn4)c4c3CNC4=O)cnc-2n1 [I-426, 7-((5-(4-hydroxy-piperidin-1-yl)pyridin-2-yl)amino)-4-(2-methyl-2H-pyrrolo[2,3-c]pyridazin-5-yl)isoindolin-1-one]
24 | < 100 | O=C1NCc2c(-c3cnc4cc(F)ccn34)ccc(Nc3ccc(N4CCC(CN5CCOCC5)CC4)cn3)c21 [I-428, 4-(7-fluoroimidazo [1,2-a]pyridin-3-yl)-7-((5-(4-(morpholinomethyl)piperidin-1-yl)pyridin-2-yl)amino)isoin-dolin-1-one]
25 | < 100 | CC1(N2CCOCC2)CCN(c2ccc(Nc3ccc(-c4cnc5cc(F)ccn45)c4c3C(=O)NC4)nc2)CC1 [I-429, 4-(7-fluoroimidazo [1,2-a]pyridin-3-yl)-7-((5-(4-methyl-4-morpholinopip-eridin-1-yl)pyridin-2-yl)amino)isoin-dolin-1-one]
26 | < 100 | CC1(CO)CCN(c2ccc(Nc3ccc(-c4cnc5cc(F)ccn45)c4c3C(=O)NC4)nc2)CC1 [I-433, 4-(7-fluoroimidazo [1,2-a]pyridin-3-yl)-7-((5-(4-(hydroxymeth-yl]-4-methylpiperidin-1-yl)pyridin-2-yl)amino)isoin-dolin-1-one]
27 | < 100 | O=C1NCc2c(-c3cnc4cnccn34)ccc(Nc3ccc(N4CC[C@@H](F)[C@H](O)C4)cn3)c21 [I-434, 7-((5-((3R,4R)-4-fluoro-3-hydroxypiperidin-1-yl)pyridin-2-yl)amino)-4-(imidazo[1,2-a]pyrazin-3-yl)isoindolin-1-one]
28 | < 100 | O=C1NCc2c(-c3cnc4cnccn34)ccc(Nc3ccc(N4CC[C@H](F)[C@@H](O)C4)cn3)c21 [I-435, 7-((5-((3S,4S)-4-fluoro-3-hydroxypiperidin-1-yl)pyridin-2-yl)amino)-4-(imidazo[1,2-a]pyrazin-3-yl)isoindolin-1-one]
29 | < 100 | COC[C@@H]1CN(c2ccc(Nc3cnc(-c4ccnc5c4ccn5C)c4c3C(=O)NC4)nc2)CC[C@@H]1O [I-436, 7-((5-((3S,4S)-4-hydroxy-3-(methoxymeth-yl)piperidin-1-yl)pyridin-2-yl)amino)-4-(1-methyl-1H-pyrrolo[2,3-b]pyridin-4-yl)-2,3-dihydro-1H-pyrrolo[3,4-c]pyridin-1-one]
30 | < 100 | CN1CCN(CC2(O)CCN(c3ccc(Nc4ccc(-c5cnc6cc(Cl)ccn56)c5c4C(=O)NC5)nc3)CC2)CC1 [I-437, 4-(7-chloroimidazo [1,2-a]pyridin-3-yl)-7-((5-(4-hydroxy-4-((4-methylpiperazin-1-yl)methyl)piper-idin-1-yl)pyridin-2-yl)amino)isoin-dolin-1-one]
31 | < 100 | COC[C@@H]1CN(c2ccc(Nc3ccc(-c4cnc5cc(F)ccn45)c4c3C(=O)NC4)nc2)CCO1 [I-442, (S)-4-(7-fluoroimidazo [1,2-a]pyridin-3-yl)-7-((5-(2-(methoxymeth-yl)morpholino)pyridin-2-yl)amino)isoin-dolin-1-one]
